Measurements from patent publication US9604984B2, “5-chloro-2-difluoromethoxyphenyl pyrazolopyrimidine compounds, compositions and methods of use thereof” (Genentech, Inc., priority 2014, dated 2017).

Tests used:
[1] = biological target: isolated recombinant JAK1 kinase domain (Homo sapiens (Human), UniProt P23458); experiment: JAK1 enzyme assay (Caliper LabChip, peptide phosphorylation); format: biochemical; conditions: 25 μM ATP
Method: (§1) JAK Enzyme Assays were carried out as follows:
(§2) The activity of the isolated recombinant JAK1 and JAK2 kinase domain was measured by monitoring phosphorylation of a peptide derived from JAK3 ([…] fluorescently labeled on the N-terminus with 5-carboxyfluorescein) using the Caliper LabChip® technology (Caliper Life Sciences, Hopkinton, Mass.). […] Reactions were incubated at 22° C. in 384-well polypropylene microtiter plates for 30 minutes and then stopped by addition of 25 μL of an EDTA containing solution (100 mM HEPES buffer (pH 7.2), 0.015% Brij-35, 150 mM EDTA), resulting in a final EDTA concentration of 50 mM. After termination of the kinase reaction, the proportion of phosphorylated product was determined as a fraction of total peptide substrate using the Caliper LabChip® 3000 according to the manufacturer's specifications.

[2] = biological target: isolated recombinant JAK2 kinase domain (Homo sapiens (Human), UniProt O60674); experiment: JAK2 enzyme assay (Caliper LabChip, peptide phosphorylation); format: biochemical; conditions: 25 μM ATP
Method: as §1, §2

[3] = Clearance assay: mouse intravenous (IV) clearance; format: in vivo; conditions: female BALB/c mice, single IV dose of 1 mg/kg
From the text: In certain instances high systemic clearance of a drug substance may be of benefit. For example, in the treatment of pulmonary diseases it may be beneficial to have high drug concentrations in the lung, with lower concentrations in the bloodstream or peripheral organs. In such cases, it may be advantageous to administer a drug substance with high systemic clearance via the inhaled delivery route. This approach may maximize pharmacologic activity of the drug substance in the lung while minimizing the possibility of on-target toxicity elsewhere in the body. The functional groups appended to the 5-chloro-2-difluoromethoxyphenyl pyrazolopyrimidine scaffold affect systemic clearance.
Female BALB/c mice were obtained from Charles River Labs (Hollister, Calif. USA). Twelve animals were given a single IV dose of 1 mg/kg of compounds via the tail vein. A representative dose solution was prepared as follows: the compound was dissolved in a mixture of 5% dimethylsulfoxide (DMSO), 35% polyethylene glycol (PEG 400), and 60% water (v/v/v), respectively, and administered at a dosing volume of 5 mL/kg. Mice weighed approximately 20-25 g at the start of the study. […] PK data analysis was performed on mean plasma concentration-time data and PK parameters were determined by non compartmental methods using WinNonlin® Enterprise, version 5.2.1 (Pharsight Corporation; Mountain View, Calif.).

Sequence of isolated recombinant JAK1 kinase domain (P23458 875-1153): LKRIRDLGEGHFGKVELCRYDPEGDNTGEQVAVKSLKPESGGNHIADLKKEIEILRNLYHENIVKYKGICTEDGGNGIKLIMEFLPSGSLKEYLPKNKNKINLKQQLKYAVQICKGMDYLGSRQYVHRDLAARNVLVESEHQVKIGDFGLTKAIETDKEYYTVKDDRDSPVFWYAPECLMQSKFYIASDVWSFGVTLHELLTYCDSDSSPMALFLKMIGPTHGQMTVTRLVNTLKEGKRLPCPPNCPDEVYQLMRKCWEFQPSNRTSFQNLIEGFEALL
Sequence of isolated recombinant JAK2 kinase domain (O60674 849-1124): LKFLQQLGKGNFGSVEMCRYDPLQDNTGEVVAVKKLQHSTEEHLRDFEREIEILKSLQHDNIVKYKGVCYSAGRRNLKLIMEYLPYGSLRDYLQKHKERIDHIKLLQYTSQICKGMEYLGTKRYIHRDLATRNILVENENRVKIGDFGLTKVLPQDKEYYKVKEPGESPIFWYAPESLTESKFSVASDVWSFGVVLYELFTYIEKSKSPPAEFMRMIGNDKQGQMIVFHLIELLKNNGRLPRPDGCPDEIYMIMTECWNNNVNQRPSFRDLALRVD

Ki [1] [nM]	Ki [2] [nM]	mouse IV clearance as % of mouse liver blood flow [3]	SMILES
0.6	1.64		CNC(=O)[C@@H]1CCCN1CC1CCN(C(=O)Cn2cc(NC(=O)c3cnn4cccnc34)c(-c3cc(Cl)ccc3OC(F)F)n2)CC1 [Example 425, N-(3-(5-chloro-2-(difluoromethoxy)phenyl)-1-(2-(4-(((S)-2-(methylcarbamoyl)pyrrolidin-1-yl)methyl)piperidin-1-yl)-2-oxoethyl)-1H-pyrazol-4-yl)pyrazolo[1,5-a]pyrimidine-3-carboxamide]
		6 % of mouse liver blood flow	CC(C)(O)Cn1cc(NC(=O)c2cnn3cccnc23)c(-c2cc(Cl)ccc2OC(F)F)n1 [compound i]
